Legend:
[1] = target: Microtubule-associated serine/threonine-protein kinase 1 (Homo sapiens) (UniProt Q9Y2H9); assay: Selectivity interaction (KinomeScan (DiscoverX)) EUB0000747a MAST1; conditions: at 1 µM
[2] = target: 5-hydroxytryptamine receptor 7 (Homo sapiens, UniProt P34969); assay: Selectivity interaction (GPCR panel (PDSP screen)) EUB0000747a HTR7
[3] = target: Death-associated protein kinase 2 (Homo sapiens) (UniProt Q9UIK4); assay: Selectivity interaction (KinomeScan (DiscoverX)) EUB0000747a DAPK2; conditions: at 1 µM
[4] = test system: T1, Receptor-type tyrosine-protein kinase FLT3 (Homo sapiens), P36888 [D835Y]; assay: Selectivity interaction (KinomeScan (DiscoverX)) EUB0000747a FLT3; conditions: at 1 µM
T1 sequence (whole entry): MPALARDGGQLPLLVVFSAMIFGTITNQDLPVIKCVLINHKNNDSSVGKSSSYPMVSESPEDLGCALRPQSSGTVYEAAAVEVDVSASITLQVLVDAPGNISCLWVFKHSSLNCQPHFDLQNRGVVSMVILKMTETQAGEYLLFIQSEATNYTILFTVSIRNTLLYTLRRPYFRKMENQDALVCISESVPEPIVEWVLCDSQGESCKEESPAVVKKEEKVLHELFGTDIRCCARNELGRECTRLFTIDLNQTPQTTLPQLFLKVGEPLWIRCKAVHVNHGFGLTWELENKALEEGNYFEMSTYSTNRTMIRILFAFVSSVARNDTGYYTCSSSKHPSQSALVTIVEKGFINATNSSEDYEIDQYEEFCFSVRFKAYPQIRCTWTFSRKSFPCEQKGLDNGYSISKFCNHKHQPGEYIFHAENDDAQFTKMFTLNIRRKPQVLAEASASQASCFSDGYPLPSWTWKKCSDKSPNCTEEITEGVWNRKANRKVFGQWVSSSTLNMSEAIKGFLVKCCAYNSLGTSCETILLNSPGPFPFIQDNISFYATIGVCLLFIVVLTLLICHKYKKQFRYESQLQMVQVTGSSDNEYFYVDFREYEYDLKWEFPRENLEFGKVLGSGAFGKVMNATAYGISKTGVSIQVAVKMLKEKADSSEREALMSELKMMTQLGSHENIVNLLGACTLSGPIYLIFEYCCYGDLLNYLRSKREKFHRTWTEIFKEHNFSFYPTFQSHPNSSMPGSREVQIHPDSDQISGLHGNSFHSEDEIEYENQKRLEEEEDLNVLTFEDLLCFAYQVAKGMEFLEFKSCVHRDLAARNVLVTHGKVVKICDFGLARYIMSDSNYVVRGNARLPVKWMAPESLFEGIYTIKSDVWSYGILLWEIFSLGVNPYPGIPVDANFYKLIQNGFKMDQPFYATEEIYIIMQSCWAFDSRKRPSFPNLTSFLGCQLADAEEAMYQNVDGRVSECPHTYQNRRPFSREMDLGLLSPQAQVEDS

[5] = target: T2, Chromatin remodeling regulator CECR2 (Homo sapiens, UniProt Q9BXF3); assay: Selectivity interaction (Bromodomain panel (DSF assay)) EUB0000253b CECR2
Target sequence in this assay (Q9BXF3 whole entry, looked up): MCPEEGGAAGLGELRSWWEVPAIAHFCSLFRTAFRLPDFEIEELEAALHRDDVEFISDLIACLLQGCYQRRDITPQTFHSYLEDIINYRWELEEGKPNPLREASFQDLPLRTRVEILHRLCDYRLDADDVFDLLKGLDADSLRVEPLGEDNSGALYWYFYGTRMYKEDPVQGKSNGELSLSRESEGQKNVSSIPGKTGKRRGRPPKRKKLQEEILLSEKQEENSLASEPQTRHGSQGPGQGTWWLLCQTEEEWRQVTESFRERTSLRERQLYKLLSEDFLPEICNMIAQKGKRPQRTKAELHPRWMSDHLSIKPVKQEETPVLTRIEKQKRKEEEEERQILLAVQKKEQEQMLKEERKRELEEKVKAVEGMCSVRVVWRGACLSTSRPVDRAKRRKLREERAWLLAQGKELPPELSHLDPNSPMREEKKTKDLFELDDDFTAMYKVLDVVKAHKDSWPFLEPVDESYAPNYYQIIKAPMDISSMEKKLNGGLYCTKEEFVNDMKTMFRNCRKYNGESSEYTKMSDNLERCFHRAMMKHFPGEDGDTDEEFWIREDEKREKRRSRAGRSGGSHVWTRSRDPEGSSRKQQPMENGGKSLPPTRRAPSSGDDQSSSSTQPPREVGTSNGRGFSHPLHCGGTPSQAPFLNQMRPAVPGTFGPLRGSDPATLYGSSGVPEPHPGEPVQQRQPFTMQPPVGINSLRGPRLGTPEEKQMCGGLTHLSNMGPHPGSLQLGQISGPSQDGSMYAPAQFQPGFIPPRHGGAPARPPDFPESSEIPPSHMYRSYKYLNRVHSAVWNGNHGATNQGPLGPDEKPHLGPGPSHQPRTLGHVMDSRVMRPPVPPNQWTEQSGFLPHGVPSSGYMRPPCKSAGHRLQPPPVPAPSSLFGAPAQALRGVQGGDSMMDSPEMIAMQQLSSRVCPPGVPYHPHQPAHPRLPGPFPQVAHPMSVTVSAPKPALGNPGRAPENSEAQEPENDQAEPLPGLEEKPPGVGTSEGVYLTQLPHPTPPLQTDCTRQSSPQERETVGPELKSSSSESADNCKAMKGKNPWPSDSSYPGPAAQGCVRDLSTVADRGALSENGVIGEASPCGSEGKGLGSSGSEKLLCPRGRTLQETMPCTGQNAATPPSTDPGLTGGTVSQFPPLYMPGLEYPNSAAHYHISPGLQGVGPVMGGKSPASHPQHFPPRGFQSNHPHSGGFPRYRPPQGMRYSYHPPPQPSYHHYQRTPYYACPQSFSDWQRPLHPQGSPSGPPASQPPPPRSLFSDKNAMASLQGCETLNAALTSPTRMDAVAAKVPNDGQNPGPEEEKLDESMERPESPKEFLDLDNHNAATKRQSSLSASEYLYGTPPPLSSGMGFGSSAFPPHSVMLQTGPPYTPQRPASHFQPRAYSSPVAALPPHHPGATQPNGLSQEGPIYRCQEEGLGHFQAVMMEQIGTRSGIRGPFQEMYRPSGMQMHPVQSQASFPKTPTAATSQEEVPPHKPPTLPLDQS

Adenosine receptor A3 = target: T3, Adenosine receptor A3 (Homo sapiens, UniProt P0DMS8); assay: Selectivity interaction (NIBR principial panel (12 GPCRs, 3 nuclear receptors, 3 transporters, and 7 other enzymes)) EUB0000253b ADORA3
T3 sequence (P0DMS8 whole entry): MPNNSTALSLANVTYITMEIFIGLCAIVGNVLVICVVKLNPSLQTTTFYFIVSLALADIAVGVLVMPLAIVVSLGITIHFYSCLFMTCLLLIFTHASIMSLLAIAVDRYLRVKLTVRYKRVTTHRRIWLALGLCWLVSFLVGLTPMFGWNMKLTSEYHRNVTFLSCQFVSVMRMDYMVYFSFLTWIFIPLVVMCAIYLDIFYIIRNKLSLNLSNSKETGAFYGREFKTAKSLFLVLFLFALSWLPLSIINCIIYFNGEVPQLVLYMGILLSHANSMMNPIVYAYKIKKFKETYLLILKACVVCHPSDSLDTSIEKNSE

Histamine H3 receptor = Histamine H3 receptor (Homo sapiens, UniProt Q9Y5N1); assay: Selectivity interaction (NIBR principial panel (12 GPCRs, 3 nuclear receptors, 3 transporters, and 7 other enzymes)) EUB0000253b HRH3
[6] = target: T4, Histone acetyltransferase KAT2B (Homo sapiens, UniProt Q92831); assay: Selectivity interaction (Bromodomain panel (DSF assay)) EUB0000253b KAT2B
Target sequence in this assay (Q92831 whole entry, looked up): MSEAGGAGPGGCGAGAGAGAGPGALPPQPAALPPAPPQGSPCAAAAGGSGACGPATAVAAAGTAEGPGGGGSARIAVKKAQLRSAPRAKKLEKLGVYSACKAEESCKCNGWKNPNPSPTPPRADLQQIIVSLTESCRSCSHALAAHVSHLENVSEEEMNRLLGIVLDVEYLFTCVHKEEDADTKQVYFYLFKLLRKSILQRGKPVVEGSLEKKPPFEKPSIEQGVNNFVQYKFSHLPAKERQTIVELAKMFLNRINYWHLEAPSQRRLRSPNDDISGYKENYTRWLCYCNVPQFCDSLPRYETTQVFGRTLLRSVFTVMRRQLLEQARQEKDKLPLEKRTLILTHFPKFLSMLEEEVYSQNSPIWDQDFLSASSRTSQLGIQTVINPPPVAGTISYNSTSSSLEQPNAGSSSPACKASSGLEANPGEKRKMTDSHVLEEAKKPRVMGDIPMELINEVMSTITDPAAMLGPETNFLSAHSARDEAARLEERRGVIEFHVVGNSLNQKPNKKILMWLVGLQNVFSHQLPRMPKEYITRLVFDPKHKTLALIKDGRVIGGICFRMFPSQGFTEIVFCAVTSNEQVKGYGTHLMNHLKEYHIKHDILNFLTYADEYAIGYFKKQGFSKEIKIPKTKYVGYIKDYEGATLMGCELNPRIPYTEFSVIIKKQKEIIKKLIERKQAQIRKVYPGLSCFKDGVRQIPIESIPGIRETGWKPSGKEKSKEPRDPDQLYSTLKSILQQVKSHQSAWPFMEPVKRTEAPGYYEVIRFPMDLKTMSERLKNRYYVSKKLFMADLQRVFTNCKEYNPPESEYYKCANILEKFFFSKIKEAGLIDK

[7] = target: T2, Chromatin remodeling regulator CECR2; assay: Selectivity interaction (BROMOscan™ panel (DiscoverX)) EUB0000253b CECR2
Target sequence in this assay (Q9BXF3 whole entry): as the sequence (Q9BXF3 whole entry, looked up) above

D(3) dopamine receptor [8] = target: T5, D(3) dopamine receptor (Homo sapiens, UniProt P35462); assay: Selectivity interaction (NIBR principial panel (12 GPCRs, 3 nuclear receptors, 3 transporters, and 7 other enzymes)) EUB0000253b DRD3
T5 sequence (P35462 whole entry): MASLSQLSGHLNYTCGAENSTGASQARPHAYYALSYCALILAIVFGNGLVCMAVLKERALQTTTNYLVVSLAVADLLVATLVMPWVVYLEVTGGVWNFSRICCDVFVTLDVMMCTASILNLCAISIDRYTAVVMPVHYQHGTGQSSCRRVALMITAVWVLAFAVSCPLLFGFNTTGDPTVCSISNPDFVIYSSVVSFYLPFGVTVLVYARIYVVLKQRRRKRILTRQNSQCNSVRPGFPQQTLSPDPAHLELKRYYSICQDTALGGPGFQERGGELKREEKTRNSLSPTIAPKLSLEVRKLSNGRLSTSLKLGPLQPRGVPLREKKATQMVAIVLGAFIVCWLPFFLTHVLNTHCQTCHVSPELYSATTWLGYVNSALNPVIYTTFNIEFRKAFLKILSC

[9] = target: T6, Bromodomain-containing protein 7 (Homo sapiens) (UniProt Q9NPI1); assay: Selectivity interaction (Bromodomain panel (DSF assay)) EUB0000253b BRD7
T6 sequence (whole entry): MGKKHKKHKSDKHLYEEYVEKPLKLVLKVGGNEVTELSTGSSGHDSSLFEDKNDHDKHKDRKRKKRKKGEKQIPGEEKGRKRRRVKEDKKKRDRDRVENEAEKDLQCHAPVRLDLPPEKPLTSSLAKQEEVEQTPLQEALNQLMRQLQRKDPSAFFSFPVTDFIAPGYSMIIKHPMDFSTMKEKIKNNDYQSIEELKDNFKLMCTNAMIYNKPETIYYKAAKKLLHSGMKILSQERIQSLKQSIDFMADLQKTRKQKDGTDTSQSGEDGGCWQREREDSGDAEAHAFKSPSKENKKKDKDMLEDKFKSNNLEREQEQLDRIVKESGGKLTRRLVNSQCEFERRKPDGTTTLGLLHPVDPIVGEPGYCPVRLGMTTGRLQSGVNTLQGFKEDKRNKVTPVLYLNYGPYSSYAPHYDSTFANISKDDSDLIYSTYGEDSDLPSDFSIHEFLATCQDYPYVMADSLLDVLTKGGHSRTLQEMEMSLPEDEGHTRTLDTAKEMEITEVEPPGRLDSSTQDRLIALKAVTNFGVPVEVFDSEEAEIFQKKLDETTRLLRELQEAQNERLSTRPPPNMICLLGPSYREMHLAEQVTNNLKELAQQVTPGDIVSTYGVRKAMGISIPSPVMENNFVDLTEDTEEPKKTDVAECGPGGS

[10] = target: T7, Histone acetyltransferase KAT2A (Homo sapiens, UniProt Q92830); assay: Selectivity interaction (BROMOscan™ panel (DiscoverX)) EUB0000253b KAT2A
T7 sequence (Q92830 whole entry): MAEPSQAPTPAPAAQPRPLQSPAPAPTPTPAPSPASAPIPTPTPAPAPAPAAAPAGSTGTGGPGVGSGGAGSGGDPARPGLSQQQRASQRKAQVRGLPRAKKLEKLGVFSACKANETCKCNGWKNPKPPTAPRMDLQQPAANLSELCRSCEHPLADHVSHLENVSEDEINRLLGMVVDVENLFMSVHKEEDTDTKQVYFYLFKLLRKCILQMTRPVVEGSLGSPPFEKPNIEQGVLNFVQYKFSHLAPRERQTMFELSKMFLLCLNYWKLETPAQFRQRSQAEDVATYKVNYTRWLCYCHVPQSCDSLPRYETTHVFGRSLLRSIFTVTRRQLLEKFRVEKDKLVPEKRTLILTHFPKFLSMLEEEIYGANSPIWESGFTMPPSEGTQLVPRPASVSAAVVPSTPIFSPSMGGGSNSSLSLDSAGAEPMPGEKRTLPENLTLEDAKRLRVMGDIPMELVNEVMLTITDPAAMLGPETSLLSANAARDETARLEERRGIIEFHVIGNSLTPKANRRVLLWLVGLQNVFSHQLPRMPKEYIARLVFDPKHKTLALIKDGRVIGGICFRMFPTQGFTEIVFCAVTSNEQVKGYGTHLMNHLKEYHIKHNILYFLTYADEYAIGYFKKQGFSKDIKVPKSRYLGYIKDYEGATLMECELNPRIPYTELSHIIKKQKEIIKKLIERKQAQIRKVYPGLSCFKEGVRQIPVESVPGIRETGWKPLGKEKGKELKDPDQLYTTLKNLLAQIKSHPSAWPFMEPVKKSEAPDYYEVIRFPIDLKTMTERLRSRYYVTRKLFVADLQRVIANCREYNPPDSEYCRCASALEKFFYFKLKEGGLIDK

[11] = target: T4, Histone acetyltransferase KAT2B; assay: Selectivity interaction (NanoBRET assay (HEK293T cells)) EUB0000253b KAT2B
Target sequence in this assay (Q92831 whole entry): as the sequence (Q92831 whole entry, looked up) above

[12] = target: T2, Chromatin remodeling regulator CECR2; assay: Selectivity interaction (NanoBRET assay (HEK293T cells)) EUB0000253b CECR2
Target sequence in this assay (Q9BXF3 whole entry): as the sequence (Q9BXF3 whole entry, looked up) above

[13] = target: T4, Histone acetyltransferase KAT2B; assay: Selectivity interaction (BROMOscan™ panel (DiscoverX)) EUB0000253b KAT2B
Target sequence in this assay (Q92831 whole entry): as the sequence (Q92831 whole entry, looked up) above

[14] = target: T8, Nucleosome-remodeling factor subunit BPTF (Homo sapiens, UniProt Q12830)
[15] = target: T8, Nucleosome-remodeling factor subunit BPTF; remark: listed apart in the source
[16] = target: T7, Histone acetyltransferase KAT2A; assay: Selectivity interaction (NanoBRET assay (HEK293T cells)) EUB0000253b KAT2A
[17] = target: Transcription initiation factor TFIID subunit 1 (Homo sapiens, UniProt P21675); assay: Selectivity interaction (Bromodomain panel (DSF assay)) EUB0000201c TAF1
[18] = target: T2, Chromatin remodeling regulator CECR2; assay: (§1) Selectivity interaction (Bromodomain panel (DSF assay)) EUB0000201c CECR2
Target sequence in this assay (Q9BXF3 whole entry, looked up): as the sequence (Q9BXF3 whole entry, looked up) above

[19] = target: T2, Chromatin remodeling regulator CECR2; assay: Selectivity interaction (Cellular FRAP assay) EUB0000201c CECR2
Target sequence in this assay (Q9BXF3 whole entry): as the sequence (Q9BXF3 whole entry, looked up) above

[20] = target: SWI/SNF-related matrix-associated actin-dependent regulator of chromatin subfamily A member 4 (Homo sapiens) (UniProt P51532); assay: Selectivity interaction (Bromodomain panel (DSF assay)) EUB0000201c SMARCA4
[21] = target: T8, Nucleosome-remodeling factor subunit BPTF; assay: Selectivity interaction (Bromodomain panel (DSF assay)) EUB0000201c BPTF
[22] = target: T6, Bromodomain-containing protein 7 (Homo sapiens); assay: Selectivity interaction (Bromodomain panel (DSF assay)) EUB0000201c BRD7
[23] = target: Bromodomain-containing protein 4 (Homo sapiens, UniProt O60885); assay: Selectivity interaction (Bromodomain panel (DSF assay)) EUB0000201c BRD4
[24] = target: T2, Chromatin remodeling regulator CECR2; assay: as §1; remark: listed apart in the source
Target sequence in this assay (Q9BXF3 whole entry, looked up): as above

[25] = target: Cyclin-dependent kinase 9 (Homo sapiens) (UniProt P50750); assay: Selectivity interaction (Kinase Profiler (Millipore)) EUB0000677a CDK9; conditions: at 1 µM
[26] = target: Serine/threonine-protein kinase PLK1 (Homo sapiens, UniProt P53350); conditions: at 1 µM
[27] = target: Casein kinase II subunit alpha (Homo sapiens, UniProt P68400); assay: Selectivity interaction (Kinase panel (radiometric kinase assay)) EUB0000677a CSNK2A1
Chain of Casein kinase II subunit alpha (P68400 whole entry): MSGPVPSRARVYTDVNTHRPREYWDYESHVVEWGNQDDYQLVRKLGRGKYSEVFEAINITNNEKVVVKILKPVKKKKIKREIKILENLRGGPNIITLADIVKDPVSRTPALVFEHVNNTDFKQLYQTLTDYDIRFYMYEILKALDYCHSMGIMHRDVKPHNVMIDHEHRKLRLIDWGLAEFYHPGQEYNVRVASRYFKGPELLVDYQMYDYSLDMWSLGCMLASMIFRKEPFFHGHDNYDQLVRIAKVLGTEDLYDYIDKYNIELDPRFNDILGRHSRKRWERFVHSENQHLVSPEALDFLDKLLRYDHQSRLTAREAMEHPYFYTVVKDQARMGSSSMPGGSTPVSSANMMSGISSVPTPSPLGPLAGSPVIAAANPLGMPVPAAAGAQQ

[28] = test system: T1, Receptor-type tyrosine-protein kinase FLT3 (Homo sapiens), P36888 [D835Y]; conditions: at 1 µM
[29] = target: Muscarinic acetylcholine receptor M1 (Homo sapiens, UniProt P11229); assay: Selectivity interaction (Receptor panel (Novartis) ) EUB0000164c CHRM1
Histamine H1 receptor = Histamine H1 receptor (Homo sapiens, UniProt P35367); assay: Selectivity interaction (Receptor panel (Novartis) ) EUB0000164c HRH1
[30] = target: Tyrosine-protein kinase BAZ1B (Homo sapiens) (UniProt Q9UIG0); assay: Selectivity interaction (Bromodomain panel (DSF assay)) EUB0000164c BAZ1B
[31] = target: Calcium/calmodulin-dependent protein kinase type II subunit beta (Homo sapiens, UniProt Q13554); assay: Selectivity interaction (Upstate Kinase Profiler service (Millipore)) EUB0000056c CAMK2B
Chain of Calcium/calmodulin-dependent protein kinase type II subunit beta (Q13554 whole entry): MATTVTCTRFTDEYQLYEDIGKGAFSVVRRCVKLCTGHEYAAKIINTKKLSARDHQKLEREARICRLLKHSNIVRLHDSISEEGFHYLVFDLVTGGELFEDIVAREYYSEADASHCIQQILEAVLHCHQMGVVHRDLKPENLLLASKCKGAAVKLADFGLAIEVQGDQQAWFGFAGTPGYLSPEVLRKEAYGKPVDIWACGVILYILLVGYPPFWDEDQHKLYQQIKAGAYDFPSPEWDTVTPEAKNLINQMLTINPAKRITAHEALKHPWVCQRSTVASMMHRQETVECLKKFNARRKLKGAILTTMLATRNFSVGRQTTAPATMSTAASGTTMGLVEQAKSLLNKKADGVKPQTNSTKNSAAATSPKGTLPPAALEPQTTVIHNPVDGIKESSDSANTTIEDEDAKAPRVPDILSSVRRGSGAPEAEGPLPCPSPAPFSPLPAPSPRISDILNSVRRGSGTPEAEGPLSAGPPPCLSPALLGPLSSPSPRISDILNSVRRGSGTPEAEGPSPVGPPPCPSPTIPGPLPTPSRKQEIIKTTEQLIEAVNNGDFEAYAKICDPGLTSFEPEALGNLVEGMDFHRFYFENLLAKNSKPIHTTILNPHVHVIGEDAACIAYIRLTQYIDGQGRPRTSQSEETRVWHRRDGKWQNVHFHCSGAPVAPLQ

[32] = target: 5'-AMP-activated protein kinase catalytic subunit alpha-1 (Homo sapiens, UniProt Q13131); assay: Selectivity interaction (Upstate Kinase Profiler service (Millipore)) EUB0000056c PRKAA1
[33] = target: Prostaglandin G/H synthase 2 (Homo sapiens, UniProt P35354); assay: Selectivity interaction (NIBR principial panel (12 GPCRs, 3 nuclear receptors, 3 transporters, and 7 other enzymes)) EUB0000254b PTGS2
Acetylcholinesterase = Acetylcholinesterase (Homo sapiens, UniProt P22303); assay: Selectivity interaction (NIBR principial panel (12 GPCRs, 3 nuclear receptors, 3 transporters, and 7 other enzymes)) EUB0000254b ACHE
D(3) dopamine receptor [34] = target: T5, D(3) dopamine receptor; assay: Selectivity interaction (NIBR principial panel (12 GPCRs, 3 nuclear receptors, 3 transporters, and 7 other enzymes)) EUB0000254b DRD3
[35] = test system: Tyrosine-protein kinase ABL1 (Homo sapiens), P00519 [T315I]; assay: Selectivity interaction (KinomeScan (DiscoverX)) EUB0000723a ABL1; conditions: at 1 µM
[36] = target: Tyrosine-protein kinase ABL1 (Homo sapiens, UniProt P00519); assay: Selectivity interaction (NanoBRET assay (HEK293T cells)) EUB0000723a ABL1
[37] = target: T9, Aurora kinase C (Homo sapiens) (UniProt Q9UQB9); assay: Selectivity interaction (KinomeScan (DiscoverX)) EUB0000723a AURKC; conditions: at 1 µM
T9 sequence (whole entry): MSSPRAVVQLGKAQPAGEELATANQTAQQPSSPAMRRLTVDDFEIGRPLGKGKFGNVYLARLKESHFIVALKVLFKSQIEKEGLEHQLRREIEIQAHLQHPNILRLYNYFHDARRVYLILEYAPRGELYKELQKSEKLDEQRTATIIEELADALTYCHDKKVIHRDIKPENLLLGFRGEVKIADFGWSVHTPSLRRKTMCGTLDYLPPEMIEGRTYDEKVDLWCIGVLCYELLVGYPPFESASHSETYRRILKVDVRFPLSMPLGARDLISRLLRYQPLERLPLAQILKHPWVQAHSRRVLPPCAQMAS

Aurora kinase C = Aurora kinase C (Homo sapiens, UniProt Q9UQB9); assay: Selectivity interaction (NanoBRET assay (HEK293T cells)) EUB0000723a AURKC

## CO[C@@H](C)c1c(Nc2ccc([C@@H](N(C)C(=O)C3CCS(=O)(=O)CC3)C(F)(F)F)cc2)cnc2cc(Cl)nn12 [NVS-MALT1-C]
[1]
  % of control: 29%
[2]
  Ki: > 10000 nM
[3]
  % of control: 41%
[4]
  % of control: 42%

## Cc1c(Nc2ccc(S(=O)(=O)N3CCN(C)CC3)cc2F)nc2ccc(-c3cnn(C4CC4)c3)cn2c1=O
[5]
  dTm: 2.48 K
Adenosine receptor A3
  IC50: 4900 nM
Histamine H3 receptor
  IC50: 4000 nM
[6]
  dTm: 1.53 K
[7]
  Kd: 66 nM
D(3) dopamine receptor [8]
  IC50: 3500 nM
[9]
  dTm: 1.95 K
[10]
  Kd: 62 nM
[11]
  IC50: > 10000 nM
[12]
  IC50: > 10000 nM
[13]
  Kd: 74 nM
[14]
  IC50: 30 nM
[15]
  dTm: 6.16 K
[16]
  IC50: > 10000 nM

## CCCS(=O)(=O)c1nc(NC2CC2)cc(-c2ccc3c(ccn3C3CC(C)(C)NC(C)(C)C3)c2)n1
[17]
  dTm: < 2 K
[18]
  dTm: 15.5 K
[19]
  EC50: 100 nM
[20]
  dTm: < 2 K
[21]
  dTm: < 2 K
[22]
  dTm: < 2 K
[23]
  dTm: < 2 K
[24]
  dTm: 12.5 K

## CN1CCN(c2ccc(OC(F)(F)F)c(Nc3ncc4c(n3)-c3c(c(C(N)=O)nn3CCO)CC4)c2)CC1 [ONVANSERTIB]
[25]
  % of control: 10%
[26]
  % of control: 3%
[27]
  IC50: 826 nM
[28]
  % of control: 9%

## CC(C)NC(=O)N1CC[C@H](NC2=Nc3cc(F)ccc3N(CC(F)F)c3ccc(Cl)cc32)C1
[29]
  IC50: 13000 nM
Histamine H1 receptor
  IC50: 13000 nM
[30]
  dTm: 0.7 K

## Cc1ccc(-c2ccc3c(ccc4sc5c(c43)NC[C@@H](C)NC5=O)n2)cn1
[31]
  IC50: 70 nM
[32]
  IC50: 117 nM

## Cc1c(Nc2ccc(S(=O)(=O)N3CCN(C)CC3)cc2F)nc2ccc(Nc3cnn(C4CC4)c3)cn2c1=O
[33]
  IC50: 800 nM
Acetylcholinesterase
  IC50: 5500 nM
D(3) dopamine receptor [34]
  IC50: 950 nM

## O=C(NCCCN1CCOC1=O)c1cnc(NCc2cc(Br)ccc2Br)nc1NC1CCCC1
[35]
  % of control: 100%
[36]
  IC50: > 10000 nM
[37]
  % of control: 100%
Aurora kinase C
  IC50: > 10000 nM
